Measured values as given in patent publication US20250059164A1, “IRAK DEGRADERS AND USES THEREOF” (Kymera Therapeutics, Inc., priority 2023, published 2025).

Target: T1, IRAK4 (Homo sapiens, UniProt Q9NWZ3)
T1 construct: endogenous in cells; host or cells: OCI-LY10
T1 sequence (Q9NWZ3 1-460): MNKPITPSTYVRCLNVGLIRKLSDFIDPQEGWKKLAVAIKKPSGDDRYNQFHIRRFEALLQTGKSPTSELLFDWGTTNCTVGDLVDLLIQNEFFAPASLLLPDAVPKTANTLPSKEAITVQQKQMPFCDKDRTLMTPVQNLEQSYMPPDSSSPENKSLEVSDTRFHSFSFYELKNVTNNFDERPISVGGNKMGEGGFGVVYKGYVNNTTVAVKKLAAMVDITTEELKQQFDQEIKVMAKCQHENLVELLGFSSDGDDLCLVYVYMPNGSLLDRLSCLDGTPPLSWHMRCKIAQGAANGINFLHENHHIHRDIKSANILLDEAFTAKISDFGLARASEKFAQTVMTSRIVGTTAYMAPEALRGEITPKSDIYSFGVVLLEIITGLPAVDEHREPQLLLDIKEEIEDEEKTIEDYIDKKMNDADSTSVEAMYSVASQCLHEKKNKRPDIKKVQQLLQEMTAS
Test: IRAK4 MSD degradation in OCI-LY10
Format: cell-based
Conditions: OCI-LY10 cells, 24 hrs, Meso Scale Discovery
Method in brief: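 Remaining IRAK4 protein measured by Meso Scale Discovery electrochemiluminescence sandwich assay on lysates of OCI-LY10 cells. Cells were exposed for 4 to 24 hours (37° C., 5% CO2) to eight 1:3-diluted concentrations starting at 1 to 10 μM. DC50 derived by three-parameter logistic fitting.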

| DC50 | SMILES |
| --- | --- |
| < 10 nM | O=C1CCC(c2ccc(N3CC(CO[C@@H]4CCN(C[C@H]5CC[C@H](n6cc(NC(=O)c7cnn8ccc(N9C[C@H]%10C[C@@H]9CO%10)nc78)c(C(F)F)n6)CC5)C[C@@H]4F)C3)cc2Cl)C(=O)N1 (stereo partly drawn) [I-38] |
| > 200 nM | Cn1c(NC(=O)c2cccc(C(F)(F)F)n2)cc2cn([C@H]3CC[C@H](CN4CC[C@@H](c5cccc6c5n(C)c(=O)n6C5CCC(=O)NC5=O)C(F)(F)C4)CC3)nc2c1=O (stereo partly drawn) [I-39] |
| < 10 nM | CN(C[C@H]1CC[C@H](n2cc(NC(=O)c3cnn4ccc(N5CCCC5)nc34)c(C(F)F)n2)CC1)[C@@H]1CCN(c2cccc3c2n(C)c(=O)n3C2CCC(=O)NC2=O)C[C@H]1F (stereo partly drawn) [I-40] |
| < 10 nM | Cc1nn(C2CCC(=O)NC2=O)c2cccc(N3CCN(C[C@@H]4COC5(C4)CN(C[C@H]4CC[C@H](n6cc(NC(=O)c7cnn8ccc(N9C[C@H]%10C[C@@H]9CO%10)nc78)c(C(F)F)n6)CC4)C5)CC3)c12 (stereo partly drawn) [I-42] |
| > 200 nM | Cn1c(NC(=O)c2cccc(C(F)(F)F)n2)cc2cn([C@H]3CC[C@H](CN4CC[C@H](c5cccc6c5n(C)c(=O)n6C5CCC(=O)NC5=O)[C@@H](F)C4)CC3)nc2c1=O (stereo partly drawn) [I-43] |
| 10 to 100 nM | COc1nc(NC(=O)c2cccc(C(F)F)n2)cc2cn([C@H]3CC[C@H](CN4CC[C@H](c5cccc6c5n(C)c(=O)n6C5CCC(=O)NC5=O)C(F)(F)C4)CC3)nc12 (stereo partly drawn) [I-44] |
| < 10 nM | Cc1nn(C2CCC(=O)NC2=O)c2cccc(N3CC(CN4CCN(C[C@H]5CC[C@H](n6cc(NC(=O)c7cnn8ccc(N9C[C@H]%10C[C@@H]9CO%10)nc78)c(C(F)F)n6)CC5)CC4)C3)c12 (stereo partly drawn) [I-45] |
| 10 to 100 nM | COc1cc2nn([C@H]3CC[C@H](CN4CCN(c5cccc6c5c(C)nn6C5CCC(=O)NC5=O)CC4)CC3)cc2cc1NC(=O)c1cncc(C#N)c1 (stereo partly drawn) [I-48] |
| 10 to 100 nM | COc1cc2nn([C@H]3CC[C@H](CN4CCC5(CC4)CCN(c4cccc6c4c(C)nn6C4CCC(=O)NC4=O)CC5)CC3)cc2cc1NC(=O)c1cncc(C#N)c1 (stereo partly drawn) [I-49] |
| 10 to 100 nM | COc1cc2nn([C@H]3CC[C@H](CN4CCC5(CC4)CCN(c4cccc6c4c(C)nn6C4CCC(=O)NC4=O)CC5)CC3)cc2cc1NC(=O)c1cncc(C)c1 (stereo partly drawn) [I-50] |
| < 10 nM | C[C@H]1CN(c2ccn3ncc(C(=O)Nc4cn([C@H]5CC[C@H](CN(C)[C@H]6CCN(c7cccc8c7n(C)c(=O)n8C7CCC(=O)NC7=O)C[C@H]6F)CC5)nc4C(F)F)c3n2)CCO1 (stereo partly drawn) [I-51] |
| 10 to 100 nM | Cc1nn(C2CCC(=O)NC2=O)c2cccc([C@H]3CCN(C[C@H]4CC[C@H](n5cc6cc(NC(=O)c7cccc(C(F)(F)F)n7)ncc6n5)CC4)C[C@@H]3F)c12 (stereo partly drawn) [I-53] |
| < 10 nM | Cc1nn(C2CCC(=O)NC2=O)c2cccc(N3CC(N4CCN([C@H]5CC[C@H](n6cc(NC(=O)c7cnn8ccc(N9C[C@H]%10C[C@@H]9CO%10)nc78)c(C(F)F)n6)CC5)CC4)C3)c12 (stereo partly drawn) [I-54] |
| 10 to 100 nM | O=C1CCC(c2ccc(N3CC(CO[C@H]4CCN(C[C@H]5CC[C@H](n6cc(NC(=O)c7cnn8ccc(N9C[C@H]%10C[C@@H]9CO%10)nc78)c(C(F)F)n6)CC5)C[C@@H]4F)C3)cc2Cl)C(=O)N1 (stereo partly drawn) [I-55] |
| < 10 nM | Cc1nn(C2CCC(=O)NC2=O)c2cccc(N3CC(CO[C@@H]4CCN(C[C@H]5CC[C@H](n6cc(NC(=O)c7cnn8ccc(N9C[C@H]%10C[C@@H]9CO%10)nc78)c(C(F)F)n6)CC5)C[C@@H]4F)C3)c12 (stereo partly drawn) [I-56] |
| > 200 nM | Cc1nn(C2CCC(=O)NC2=O)c2cccc(N3CC(N4CCN([C@H]5CC[C@@H](n6cc(NC(=O)c7cnn8ccc(N9C[C@H]%10C[C@@H]9CO%10)nc78)c(C(F)F)n6)CC5)CC4)C3)c12 (stereo partly drawn) [I-57] |
| < 10 nM | CN(C[C@H]1CC[C@H](n2cc3cc(NC(=O)c4cccc(C(F)(F)F)n4)c(C#N)cc3n2)CC1)[C@@H]1CCN(c2cccc3c2n(C)c(=O)n3C2CCC(=O)NC2=O)C[C@H]1F (stereo partly drawn) [I-58] |
| 10 to 100 nM | O=C1CCC(Nc2ccc(N3CC(CN4CCN(C[C@H]5CC[C@H](n6cc(NC(=O)c7cnn8ccc(N9C[C@H]%10C[C@@H]9CO%10)nc78)c(C(F)F)n6)CC5)CC4)C3)cc2)C(=O)N1 (stereo partly drawn) [I-61] |
| 100 to 200 nM | CN(c1cccc(N2CCN(C[C@H]3CC[C@H](n4cc5cc(NC(=O)c6cccc(C(F)(F)F)n6)ncc5n4)CC3)CC2)c1)C1CCC(=O)NC1=O (stereo partly drawn) [I-62] |
| < 10 nM | Cn1c(=O)n(C2CCC(=O)NC2=O)c2cccc([C@H]3CCN(C[C@H]4CC[C@H](n5cc6cc(NC(=O)c7cccc(C(F)(F)F)n7)c(C(C)(C)O)cc6n5)CC4)C[C@@H]3F)c21 (stereo partly drawn) [I-63] |
| < 10 nM | CN(C[C@H]1C[C@@H](n2cc(NC(=O)c3cnn4ccc(N5C[C@H]6C[C@@H]5CO6)nc34)c(C(F)F)n2)C1)[C@@H]1CCN(c2cccc3c2n(C)c(=O)n3C2CCC(=O)NC2=O)C[C@@H]1F (stereo partly drawn) [I-64] |

| DC50 | SMILES |
| --- | --- |
| < 10 nM | CN(C[C@H]1C[C@@H](n2cc(NC(=O)c3cnn4ccc(N5C[C@H]6C[C@@H]5CO6)nc34)c(C(F)F)n2)C1)[C@H]1CCN(c2cccc3c2n(C)c(=O)n3C2CCC(=O)NC2=O)C[C@H]1F (stereo partly drawn) [I-65] |
| < 10 nM | O=C1CCN(c2cncc3c(N4CC(O)(CN5CCN(C[C@H]6CC[C@H](n7cc(NC(=O)c8cnn9ccc(N%10C[C@H]%11C[C@@H]%10CO%11)nc89)c(C(F)F)n7)CC6)CC5)C4)cccc23)C(=O)N1 [I-67] |
| < 10 nM | CN(C[C@H]1CC[C@H](n2cc3cc(NC(=O)c4cccc(C(F)(F)F)n4)c(C(C)(C)O)cc3n2)CC1)[C@H]1CCN(c2cccc3c2n(C)c(=O)n3C2CCC(=O)NC2=O)C[C@@H]1F (stereo partly drawn) [I-68] |
| < 10 nM | CN(C[C@H]1CC[C@H](n2cc3cc(NC(=O)c4cccc(C(F)(F)F)n4)c(C(C)(C)O)cc3n2)CC1)[C@@H]1CCN(c2cccc3c2n(C)c(=O)n3C2CCC(=O)NC2=O)C[C@@H]1F (stereo partly drawn) [I-69] |
| < 10 nM | CN(C[C@H]1CC[C@H](n2cc3cc(NC(=O)c4cccc(C(F)(F)F)n4)c(C(C)(C)O)cc3n2)CC1)[C@H]1CCN(c2cccc3c2n(C)c(=O)n3C2CCC(=O)NC2=O)C[C@H]1F (stereo partly drawn) [I-70] |
| 10 to 100 nM | O=C1CCC(c2noc3c(NC(=O)CN4CCN(C[C@H]5CC[C@H](n6cc7cc(NC(=O)c8cccc(C(F)(F)F)n8)ncc7n6)CC5)CC4)cccc23)C(=O)N1 (stereo partly drawn) [I-71] |
| 10 to 100 nM | O=C1CCC(Nc2ccc(N3CC(O)(CN4CCN(C[C@H]5CC[C@H](n6cc(NC(=O)c7cnn8ccc(N9C[C@H]%10C[C@@H]9CO%10)nc78)c(C(F)F)n6)CC5)CC4)C3)cc2)C(=O)N1 (stereo partly drawn) [I-72] |
| < 10 nM | O=C1CCN(c2cncc3c(N4CC(CN5CCN(C[C@H]6CC[C@H](n7cc(NC(=O)c8cnn9ccc(N%10C[C@H]%11C[C@@H]%10CO%11)nc89)c(C(F)F)n7)CC6)CC5)C4)cccc23)C(=O)N1 [I-74] |
| < 10 nM | CC(C)(O)c1cc2nn([C@H]3CC[C@H](CN4CCN(c5ccc(C6CCC(=O)NC6=O)c(Cl)c5)CC4)CC3)cc2cc1NC(=O)c1cccc(C(F)(F)F)n1 (stereo partly drawn) [I-76] |
| 10 to 100 nM | CC(C)(O)c1cc2nn([C@H]3CC[C@H](CN4CCN(c5cccc(NC6CCC(=O)NC6=O)c5)CC4)CC3)cc2cc1NC(=O)c1cccc(C(F)(F)F)n1 (stereo partly drawn) [I-77] |
| < 10 nM | COc1cc2nn([C@H]3CC[C@H](CN(C)[C@H]4CCN(c5cccc6c5n(C)c(=O)n6C5CCC(=O)NC5=O)C[C@@H]4F)CC3)cc2cc1NC(=O)c1cccc(C(F)(F)F)n1 (stereo partly drawn) [I-80] |
| < 10 nM | COc1cc2nn([C@H]3CC[C@H](CN(C)[C@@H]4CCN(c5cccc6c5n(C)c(=O)n6C5CCC(=O)NC5=O)C[C@@H]4F)CC3)cc2cc1NC(=O)c1cccc(C(F)(F)F)n1 (stereo partly drawn) [I-81] |
| < 10 nM | COc1cc2nn([C@H]3CC[C@H](CN(C)[C@H]4CCN(c5cccc6c5n(C)c(=O)n6C5CCC(=O)NC5=O)C[C@H]4F)CC3)cc2cc1NC(=O)c1cccc(C(F)(F)F)n1 (stereo partly drawn) [I-82] |
| > 200 nM | N#Cc1cncc(C(=O)Nc2cc3cn([C@H]4CC[C@H](CN5CCN(CC(=O)Nc6cccc7c(C8CCC(=O)NC8=O)noc67)CC5)CC4)nc3cn2)c1 (stereo partly drawn) [I-84] |
| < 10 nM | Cn1nc(C2CCC(=O)NC2=O)c2cccc(N3CC(O)(CN4CCN(C[C@H]5CC[C@H](n6cc(NC(=O)c7cnn8ccc(N9C[C@H]%10C[C@@H]9CO%10)nc78)c(C(F)F)n6)CC5)CC4)C3)c21 (stereo partly drawn) [I-86] |
| < 10 nM | Cc1nn([C@@H]2CCC(=O)NC2=O)c2cccc(N3CC(CN4CCN(C[C@H]5CC[C@H](n6cc(NC(=O)c7cnn8ccc(N9C[C@H]%10C[C@@H]9CO%10)nc78)c(C(F)F)n6)CC5)CC4)C3)c12 [I-87] |
| < 10 nM | Cc1nn([C@H]2CCC(=O)NC2=O)c2cccc(N3CC(CN4CCN(C[C@H]5CC[C@H](n6cc(NC(=O)c7cnn8ccc(N9C[C@H]%10C[C@@H]9CO%10)nc78)c(C(F)F)n6)CC5)CC4)C3)c12 [I-88] |
| < 10 nM | COc1cc2nn([C@H]3CC[C@H](CN(C)[C@@H]4CCN(c5cccc6c5n(C)c(=O)n6C5CCC(=O)NC5=O)C[C@H]4F)CC3)cc2cc1NC(=O)c1cccc(C(F)(F)F)n1 (stereo partly drawn) [I-90] |
| 10 to 100 nM | Cn1nc(N2CCC(=O)NC2=O)c2cccc(N3CC(CN4CCN(C[C@H]5CC[C@H](n6cc(NC(=O)c7cnn8ccc(N9C[C@H]%10C[C@@H]9CO%10)nc78)c(C(F)F)n6)CC5)CC4)C3)c21 [I-91] |
| < 10 nM | Cc1nn(C2CCC(=O)NC2=O)c2cc(F)cc(N3CC(CN4CCN(C[C@H]5CC[C@H](n6cc(NC(=O)c7cnn8ccc(N9C[C@H]%10C[C@@H]9CO%10)nc78)c(C(F)F)n6)CC5)CC4)C3)c12 (stereo partly drawn) [I-92] |
| < 10 nM | Cn1nc(C2CCC(=O)NC2=O)c2cccc(N3CC(CN4CCN(C[C@H]5CC[C@H](n6cc(NC(=O)c7cnn8ccc(N9C[C@H]%10C[C@@H]9CO%10)nc78)c(C(F)F)n6)CC5)CC4)C3)c21 (stereo partly drawn) [I-93] |
